The source of these data is ChEMBL document CHEMBL3297694, “Naturally occurring polyphenolic inhibitors of amyloid beta aggregation” (Bioorg Med Chem Lett, 2014).

Active and inactive are the calls of the source. The calls are words filed in the database; no cut-off is given here.

A word on the IC50: it is the concentration at which inhibition is half-maximal.

The target in test [1] is T1, Amyloid-beta precursor protein (Homo sapiens, UniProt P05067). The test can be described thus: Inhibition of amyloid beta1-42 (unknown origin) aggregation assessed as amyloid fibril formation tested at 1:1 compound to peptide ratio after 17 hrs by thioflavin T fluorescence method. More on the design: scale not given: the % may be the effect or the level left.
Test [2] concerns the target T1, Amyloid-beta precursor protein. The test can be described thus: Inhibition of amyloid beta1-42 (unknown origin) aggregation assessed as reduction in amyloid fibril formation at 40 uM after 5 days by Transmission electron microscopy.
The target is the same in test [3]. The test can be described thus: Inhibition of amyloid beta1-42 (unknown origin) aggregation assessed as amyloid fibril formation tested after 17 hrs by thioflavin T fluorescence method.
Test [4] shares this target. The experiment in a line: Inhibition of amyloid beta1-42 (unknown origin) aggregation assessed as reduction in large aggregates at 100 uM after 20 mins and 24 hrs by dynamic light scattering method.
For test [5] the target is unchanged. The test can be described thus: Inhibition of amyloid beta1-42 (unknown origin) aggregation assessed as reduction in large aggregates at 400 uM after 20 mins and 2 hrs by size exclusion chromatography test. (In general: In gel filtration, larger molecules generally elute earlier.)
Test [6] shares this target. The test can be described thus: Inhibition of amyloid beta1-40 (unknown origin) aggregation.

T1 sequence (P05067 whole entry): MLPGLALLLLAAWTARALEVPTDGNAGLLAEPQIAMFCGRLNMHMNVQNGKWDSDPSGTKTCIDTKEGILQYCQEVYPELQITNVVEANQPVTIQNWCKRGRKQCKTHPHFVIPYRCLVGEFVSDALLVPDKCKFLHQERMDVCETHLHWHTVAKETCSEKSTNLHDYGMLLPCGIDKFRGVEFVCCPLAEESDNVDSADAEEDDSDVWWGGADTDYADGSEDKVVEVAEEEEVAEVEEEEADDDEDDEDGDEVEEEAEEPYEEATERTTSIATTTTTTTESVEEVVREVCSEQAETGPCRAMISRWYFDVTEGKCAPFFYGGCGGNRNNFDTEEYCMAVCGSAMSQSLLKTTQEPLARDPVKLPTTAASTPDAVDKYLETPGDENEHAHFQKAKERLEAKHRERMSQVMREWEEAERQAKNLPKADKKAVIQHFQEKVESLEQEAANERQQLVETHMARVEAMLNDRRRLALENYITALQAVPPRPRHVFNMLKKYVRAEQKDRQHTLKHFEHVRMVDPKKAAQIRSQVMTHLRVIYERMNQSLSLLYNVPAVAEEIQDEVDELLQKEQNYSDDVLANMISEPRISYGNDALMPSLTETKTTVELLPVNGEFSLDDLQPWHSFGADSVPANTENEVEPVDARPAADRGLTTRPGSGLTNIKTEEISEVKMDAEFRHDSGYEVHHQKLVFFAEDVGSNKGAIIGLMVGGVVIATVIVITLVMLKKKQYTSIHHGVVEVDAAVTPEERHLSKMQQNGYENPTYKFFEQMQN

Turning to `O=C1/C(=C/c2ccc(O)c(O)c2)Oc2c1ccc(O)c2O`, the Activity in test [1] amounted to 18.5%. Also, in test [2], the “inhibition of amyloid fibril formation (active/inactive)” value (from here on “inhibition … (active/inactive)”) was “Active”. In addition, in test [3], the IC50 was 2.7 µM.

Turning to `COc1c(-c2ccc(O)c(O)c2)oc2c(O)c(O)ccc2c1=O`, the Activity in test [1] was 21%. For the same molecule, the inhibition result in test [4] was “Active”. Besides, in test [2], the “inhibition … (active/inactive)” value is “Active”. For the same molecule, the half-maximal inhibitory concentration (IC50) in test [3] was determined as 5.4 µM. For the same molecule, in test [5], the outcome was Active.

Turning to `O=c1cc(-c2ccc(O)c(O)c2)oc2cc(O)cc(O)c12` [LUTEOLIN], the Activity in test [1] is 14.4%. In addition, in test [2], the “inhibition … (active/inactive)” value is “Active”. For the same molecule, the IC50 in test [3] was 6.4 µM.

For `O=C(O[C@@H]1Cc2c(O)cc(O)cc2O[C@@H]1c1cc(O)c(O)c(O)c1)c1cc(O)c(O)c(O)c1` [EPIGALOCATECHIN GALLATE], in test [1], the Activity turned out to be 16%. Besides, in test [2], the “inhibition … (active/inactive)” value is “Active”. Also, the values for the IC50 in test [6] and in test [3] were 3 µM and 4.6 µM, respectively.
